Reference: ChEMBL document CHEMBL3853343, “Discovery of novel 2',4'-dimethyl-[4,5'-bithiazol]-2-yl amino derivatives as orally bioavailable TRPV4 antagonists for the treatment of pain: Part 2” (Bioorg Med Chem Lett, 2016)
pIC50: −log10 of the molar value.

Tests used:
[1] = Tmax in rat at 1 mg/kg, po; type: ADME, organism-based; settings: in vivo
[2] = Metabolic stability in rat hepatocytes assessed as parent compound remaining after 1 hr; type: ADME, cell-based, Hepatocyte; settings: read-out: Stability
[3] = Volume of distribution at steady state in guinea pig at 1 mg/kg, iv; type: ADME, organism-based, Cavia porcellus; settings: in vivo, read-out: Vdss
[4] = Plasma concentration in Dunkin-Hartley guinea pig complete Freund's adjuvant-induced mechanical hyperalgesia model at 10 mg/kg, po after 5 hrs; type: ADME, organism-based, Cavia porcellus
[5] = tested on: Cavia porcellus; experiment: Analgesic activity in Dunkin-Hartley guinea pig complete Freund's adjuvant-induced mechanical hyperalgesia model assessed as reversal in paw withdrawal threshold at 1 mg/kg, po after 5 hrs relative to control; type: functional
[6] = tested on: Rattus norvegicus; experiment: Analgesic activity in rat assessed as reversal of complete Freund's adjuvant-induced mechanical hyperalgesia at 10 mg/kg, po after 3 hrs relative to control; type: functional
[7] = biological target: T1, Cytochrome P450 1A2 (Homo sapiens, UniProt P05177); experiment: Inhibition of CYP1A2 (unknown origin); type: ADME
T1 sequence (P05177 whole entry): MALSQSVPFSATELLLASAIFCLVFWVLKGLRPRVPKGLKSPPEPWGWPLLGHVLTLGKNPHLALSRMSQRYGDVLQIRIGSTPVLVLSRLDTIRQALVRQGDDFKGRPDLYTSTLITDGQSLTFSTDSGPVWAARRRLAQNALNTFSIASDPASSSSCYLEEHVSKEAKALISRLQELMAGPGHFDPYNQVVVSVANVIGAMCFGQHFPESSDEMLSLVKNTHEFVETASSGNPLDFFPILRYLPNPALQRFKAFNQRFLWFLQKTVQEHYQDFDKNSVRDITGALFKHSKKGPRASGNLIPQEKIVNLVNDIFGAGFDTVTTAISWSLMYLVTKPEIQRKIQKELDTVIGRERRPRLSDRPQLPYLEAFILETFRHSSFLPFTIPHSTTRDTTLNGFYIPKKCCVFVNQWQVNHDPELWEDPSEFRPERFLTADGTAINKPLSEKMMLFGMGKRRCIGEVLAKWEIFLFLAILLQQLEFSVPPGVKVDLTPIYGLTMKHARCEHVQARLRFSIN

[8] = Stability in rat liver microsomes assessed as parent compound remaining after 30 mins in presence or absence of NADPH; type: ADME, microsome; settings: read-out: Stability
[9] = Plasma concentration in Dunkin-Hartley guinea pig complete Freund's adjuvant-induced mechanical hyperalgesia model at 3 mg/kg, po after 5 hrs; type: ADME, organism-based, Cavia porcellus
[10] = Metabolic stability in guinea pig hepatocytes assessed as parent compound remaining after 1 hr; type: ADME, cell-based, Cavia porcellus, Hepatocyte; settings: read-out: Stability
[11] = biological target: T2, Transient receptor potential cation channel subfamily V member 4 (Rattus norvegicus, UniProt Q9ERZ8); experiment: Antagonist activity at rat TRPV4 assessed as inhibition of hypotonicity-induced activation
T2 sequence (Q9ERZ8 whole entry): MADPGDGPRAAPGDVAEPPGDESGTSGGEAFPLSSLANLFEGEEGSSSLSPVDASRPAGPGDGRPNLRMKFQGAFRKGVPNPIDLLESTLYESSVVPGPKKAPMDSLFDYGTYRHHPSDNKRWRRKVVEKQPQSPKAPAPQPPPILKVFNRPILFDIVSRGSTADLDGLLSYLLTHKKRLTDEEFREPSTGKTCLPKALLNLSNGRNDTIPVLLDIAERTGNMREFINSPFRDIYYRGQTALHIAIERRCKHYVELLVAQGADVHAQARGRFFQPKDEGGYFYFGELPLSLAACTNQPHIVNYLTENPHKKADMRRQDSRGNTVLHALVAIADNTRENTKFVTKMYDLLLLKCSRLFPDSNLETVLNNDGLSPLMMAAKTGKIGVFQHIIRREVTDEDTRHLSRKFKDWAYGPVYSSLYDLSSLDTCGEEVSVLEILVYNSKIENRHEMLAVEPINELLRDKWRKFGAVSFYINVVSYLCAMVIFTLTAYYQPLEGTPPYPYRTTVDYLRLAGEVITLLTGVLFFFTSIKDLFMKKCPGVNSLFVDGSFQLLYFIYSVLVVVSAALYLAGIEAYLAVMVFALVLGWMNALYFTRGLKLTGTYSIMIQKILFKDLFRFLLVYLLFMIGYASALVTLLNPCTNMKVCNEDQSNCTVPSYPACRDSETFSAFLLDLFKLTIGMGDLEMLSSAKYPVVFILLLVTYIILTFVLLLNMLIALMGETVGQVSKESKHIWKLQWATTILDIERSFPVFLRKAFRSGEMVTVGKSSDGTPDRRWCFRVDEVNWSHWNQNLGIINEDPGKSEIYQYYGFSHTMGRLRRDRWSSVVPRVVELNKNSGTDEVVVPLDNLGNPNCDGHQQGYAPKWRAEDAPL

[12] = tested on: Salmonella typhimurium; experiment: Genotoxicity in Salmonella typhimurium by Ames test; type: toxicity, organism-based; settings: salmonella enterica subsp. enterica serovar typhimurium
[13] = biological target: Cytochrome P450 2C19 (Homo sapiens, UniProt P33261); experiment: Inhibition of CYP2C19 (unknown origin); type: ADME
Sequence of Cytochrome P450 2C19 (P33261 whole entry): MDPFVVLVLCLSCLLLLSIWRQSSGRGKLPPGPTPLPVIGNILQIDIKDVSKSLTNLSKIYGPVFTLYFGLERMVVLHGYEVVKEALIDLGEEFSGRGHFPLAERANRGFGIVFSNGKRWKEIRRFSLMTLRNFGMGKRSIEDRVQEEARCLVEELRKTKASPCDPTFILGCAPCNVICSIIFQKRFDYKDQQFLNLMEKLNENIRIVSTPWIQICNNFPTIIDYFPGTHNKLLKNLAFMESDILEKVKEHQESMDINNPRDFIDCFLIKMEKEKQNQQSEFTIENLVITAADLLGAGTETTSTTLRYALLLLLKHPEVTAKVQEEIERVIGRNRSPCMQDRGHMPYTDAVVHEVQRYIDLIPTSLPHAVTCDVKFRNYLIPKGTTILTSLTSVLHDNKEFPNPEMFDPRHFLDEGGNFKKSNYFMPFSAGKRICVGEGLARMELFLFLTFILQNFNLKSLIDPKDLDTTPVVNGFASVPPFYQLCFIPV

[14] = Cmax in rat at 1 mg/kg, po; type: ADME, organism-based; design: dose 1 mg/kg, route oral; settings: in vivo
[15] = Cmax in guinea pig at 20 mg/kg, po measured 12 hrs post dose; type: ADME, organism-based, Cavia porcellus; design: dose 20 mg/kg, route oral; settings: in vivo
[16] = Half life in rat at 0.5 mg/kg, iv; type: ADME, organism-based; settings: in vivo
[17] = tested on: Cavia porcellus; experiment: Analgesic activity in Dunkin-Hartley guinea pig complete Freund's adjuvant-induced mechanical hyperalgesia model assessed as reversal in paw withdrawal threshold at 10 mg/kg, po after 5 hrs relative to control; type: functional
[18] = tested on: Rattus norvegicus; experiment: Analgesic activity in rat assessed as reversal of complete Freund's adjuvant-induced mechanical hyperalgesia at 30 mg/kg, po after 5 hrs relative to control; type: functional
[19] = Half life in guinea pig at 1 mg/kg, iv; type: ADME, organism-based, Cavia porcellus; settings: in vivo
[20] = Protein binding in guinea pig; type: ADME, Cavia porcellus; settings: read-out: PB (converted)
[21] = tested on: Rattus norvegicus; experiment: Analgesic activity in rat assessed as reversal of complete Freund's adjuvant-induced mechanical hyperalgesia at 10 mg/kg, po after 1 hr relative to control; type: functional
[22] = Antagonist activity at guinea pig TRPV4 assessed as inhibition of hypotonicity-induced activation; design: species or system Cavia porcellus
[23] = Tmax in guinea pig at 20 mg/kg, po; type: ADME, organism-based, Cavia porcellus; settings: in vivo
[24] = biological target: Cytochrome P450 3A4 (Homo sapiens, UniProt P08684); experiment: Inhibition of CYP3A4 (unknown origin); type: ADME
Sequence of Cytochrome P450 3A4 (P08684 whole entry): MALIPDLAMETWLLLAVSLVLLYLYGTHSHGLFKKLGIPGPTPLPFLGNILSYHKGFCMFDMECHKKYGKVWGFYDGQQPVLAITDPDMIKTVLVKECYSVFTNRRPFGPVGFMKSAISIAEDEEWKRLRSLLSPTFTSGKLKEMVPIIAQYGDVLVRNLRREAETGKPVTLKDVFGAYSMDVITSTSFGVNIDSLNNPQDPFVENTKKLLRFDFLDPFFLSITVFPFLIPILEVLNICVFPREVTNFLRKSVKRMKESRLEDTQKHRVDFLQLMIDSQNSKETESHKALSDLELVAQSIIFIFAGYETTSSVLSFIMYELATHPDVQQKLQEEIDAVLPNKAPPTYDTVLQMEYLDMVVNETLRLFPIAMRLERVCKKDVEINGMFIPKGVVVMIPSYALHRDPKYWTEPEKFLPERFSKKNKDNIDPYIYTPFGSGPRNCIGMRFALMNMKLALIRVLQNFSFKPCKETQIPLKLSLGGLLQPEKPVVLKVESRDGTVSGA

[25] = biological target: Cytochrome P450 2C9 (Homo sapiens, UniProt P11712); experiment: Inhibition of CYP2C9 (unknown origin); type: ADME
Sequence of Cytochrome P450 2C9 (P11712 whole entry): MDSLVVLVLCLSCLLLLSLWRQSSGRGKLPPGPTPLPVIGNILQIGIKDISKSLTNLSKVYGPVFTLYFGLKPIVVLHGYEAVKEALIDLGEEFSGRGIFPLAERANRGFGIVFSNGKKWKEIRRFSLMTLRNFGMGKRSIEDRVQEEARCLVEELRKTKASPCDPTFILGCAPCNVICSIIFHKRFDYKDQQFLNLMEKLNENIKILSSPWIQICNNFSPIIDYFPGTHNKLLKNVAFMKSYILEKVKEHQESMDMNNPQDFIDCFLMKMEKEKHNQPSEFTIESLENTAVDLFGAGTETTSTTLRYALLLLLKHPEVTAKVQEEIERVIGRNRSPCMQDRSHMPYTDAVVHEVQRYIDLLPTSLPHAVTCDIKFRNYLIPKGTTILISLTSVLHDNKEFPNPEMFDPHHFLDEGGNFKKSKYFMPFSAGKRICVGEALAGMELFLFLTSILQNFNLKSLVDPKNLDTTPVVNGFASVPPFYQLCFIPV

[26] = Total clearance in rat at 0.5 mg/kg, iv; type: ADME, organism-based; settings: in vivo
[27] = tested on: Rattus norvegicus; experiment: Analgesic activity in rat assessed as reversal of complete Freund's adjuvant-induced mechanical hyperalgesia at 30 mg/kg, po after 1 hr relative to control; type: functional
[28] = biological target: Cytochrome P450 2D6 (Homo sapiens, UniProt P10635); experiment: Inhibition of CYP2D6 (unknown origin); type: ADME
Sequence of Cytochrome P450 2D6 (P10635 whole entry): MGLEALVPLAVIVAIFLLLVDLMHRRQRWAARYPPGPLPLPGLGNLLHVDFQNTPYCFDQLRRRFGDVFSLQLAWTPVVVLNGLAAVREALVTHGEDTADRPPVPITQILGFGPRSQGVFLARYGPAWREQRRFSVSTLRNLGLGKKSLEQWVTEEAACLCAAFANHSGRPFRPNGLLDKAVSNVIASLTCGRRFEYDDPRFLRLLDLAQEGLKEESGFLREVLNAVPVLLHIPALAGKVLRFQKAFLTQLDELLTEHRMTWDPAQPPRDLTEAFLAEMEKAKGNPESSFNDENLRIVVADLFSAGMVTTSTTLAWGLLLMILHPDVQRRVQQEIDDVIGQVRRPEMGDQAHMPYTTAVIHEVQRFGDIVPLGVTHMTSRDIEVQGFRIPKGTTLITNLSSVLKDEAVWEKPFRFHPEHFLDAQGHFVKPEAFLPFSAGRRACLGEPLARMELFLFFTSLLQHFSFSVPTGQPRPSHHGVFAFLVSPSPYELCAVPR

[29] = Plasma concentration in Dunkin-Hartley guinea pig complete Freund's adjuvant-induced mechanical hyperalgesia model at 1 mg/kg, po after 5 hrs; type: ADME, organism-based, Cavia porcellus
[30] = AUC in rat at 1 mg/kg, po; type: ADME, organism-based; settings: in vivo
[31] = Stability in human liver microsomes assessed as parent compound remaining after 30 mins in presence or absence of NADPH; type: ADME, microsome; settings: read-out: Stability
[32] = Metabolic stability in human hepatocytes assessed as parent compound remaining after 1 hr; type: ADME, cell-based, Hepatocyte; settings: read-out: Stability
[33] = AUC in guinea pig at 20 mg/kg, po; type: ADME, organism-based, Cavia porcellus; settings: in vivo
[34] = tested on: Cavia porcellus; experiment: Analgesic activity in Dunkin-Hartley guinea pig complete Freund's adjuvant-induced mechanical hyperalgesia model assessed as reversal in paw withdrawal threshold at 3 mg/kg, po after 5 hrs relative to control; type: functional
[35] = Protein binding in human; type: ADME; settings: read-out: PB
[36] = Oral bioavailability in guinea pig at 20 mg/kg; type: ADME, organism-based, Cavia porcellus; settings: in vivo
[37] = Volume of distribution at steady state in rat at 0.5 mg/kg, iv; type: ADME, organism-based; settings: in vivo, read-out: Vdss
[38] = Antagonist activity at guinea pig TRPV4 assessed as inhibition of 4alpha-PDD-induced activation; design: species or system Cavia porcellus
[39] = biological target: T2, Transient receptor potential cation channel subfamily V member 4; experiment: Antagonist activity at rat TRPV4 assessed as inhibition of 4alpha-PDD-induced activation
[40] = Protein binding in rat; type: ADME; settings: read-out: PB
[41] = Oral bioavailability in rat at 1 mg/kg; type: ADME, organism-based; settings: in vivo
[42] = tested on: Rattus norvegicus; experiment: Analgesic activity in rat assessed as reversal of complete Freund's adjuvant-induced mechanical hyperalgesia at 30 mg/kg, po after 3 hrs relative to control; type: functional
[43] = Total clearance in guinea pig at 1 mg/kg, iv; type: ADME, organism-based, Cavia porcellus; settings: in vivo
[44] = tested on: Rattus norvegicus; experiment: Analgesic activity in rat assessed as reversal of complete Freund's adjuvant-induced mechanical hyperalgesia at 10 mg/kg, po after 5 hrs relative to control; type: functional

Compound: Cc1nc(C)c(-c2csc(Nc3ccc(C(=O)N4C5CCC4CN(c4ncc(C(F)(F)F)cn4)C5)cn3)n2)s1
- Tmax [1]: 4 h
- remaining at 1 h [2]: 105%
- Vd [3]: 11 L/kg
- concentration at 5 h [4]: 209 ng/mL
- Activity [5]: 15.6%
- Activity [6]: 21.3%
- INH [7]: > 20 µM
- remaining at 0.5 h [8]: 69.2%
- concentration at 5 h [9]: 69.4 ng/mL
- remaining at 1 h [10]: 73%
- pIC50 [11]: 8.68
- Activity [12]: Non-Toxic
- INH [13]: > 20 µM
- Cmax [14]: 55.2 ng/mL
- Cmax [15]: 256 ng/mL
- half-life [16]: 8.1 h
- Activity [17]: 43.4%
- Activity [18]: 23.5%
- half-life [19]: 4.2 h
- fraction unbound [20]: 0.003
- Activity [21]: 15.5%
- pIC50 [22]: 8.92
- Tmax [23]: 12 h
- INH [24]: > 20 µM
- INH [25]: > 20 µM
- clearance [26]: 7.22 mL/min/kg
- Activity [27]: 22%
- INH [28]: > 20 µM
- concentration at 5 h [29]: 21.2 ng/mL
- AUC [30]: 900 ng·h/mL
- remaining at 0.5 h [31]: 94.8%
- remaining at 1 h [32]: 91%
- AUC [33]: 4720 ng·h/mL
- Activity [34]: 30.6%
- fraction unbound [35]: < 0.001
- bioavailability [36]: 44%
- Vd [37]: 4.6 L/kg
- pIC50 [38]: 9.05
- pIC50 [39]: 8.07
- fraction unbound [40]: < 0.001
- bioavailability [41]: 37.9%
- Activity [42]: 29.7%
- clearance [43]: 31.1 mL/min/kg
- Activity [44]: 11%
